Reference: patent publication US20080171706A1, “Anti-Adhesive Compounds to Prevent and Treat Bacterial Infections” (priority 2004, published 2008)
Like-named read-outs stand apart in the source and are kept apart here.

Target: T1, FimHtrJ96 (Escherichia coli, UniProt P08191)
T1 construct: coding for the lectin domain of FimH (residues 1-158) with a C-terminal 6-histidine tag; made in house; host or cells: E. coli HB101 (lacking the fim operon), periplasmic extract, plasmid pPKL241
Assay: biochemical
Type: binding, uropathogenic E. coli strain J96
Protocol: To measure the dissociation constant for FimH:alkyl or aryl-mannoside binding, two different binding assays were developed. The first binding assay uses [^3H]-mannose. The amount of radioactively labeled mannose bound to FimHtrJ96 was measured at six different concentrations of [^3H]-mannose, and a hyperbolic curve fitted to the resulting data (FIG. 1A). FimHtrJ96 corresponds to the carbohydrate (mannose) binding domain of FimH from the uropathogenic E. coli strain J96. The dissociation equilibrium constant was determined from this graph at the concentration of mannose […], which corresponds to occupation of half of the binding sites.
Surface Plasmon Resonance measurements were performed on a Biacore3000™. In a first experiment, the kinetic constants and maximal binding were determined for the FimH-antibody interaction. Next, a fixed concentration of FimH (close to the KD of the FimH-antibody interaction) in combination with varying concentrations of carbohydrate, were used to determine the dissociation equilibrium constant of the FimH-saccharide interaction in a competition experiment. Every measurement was repeated at least twice, including testing the variation between different protein and saccharide batches.
To eliminate the possibility of different binding strength for full length FimH and FimHtrJ96, the binding of alpha-D-mannose to FimC:FimH complex was also measured. […] The inhibition of [^3H]-mannose binding was used in a displacement assay to determine the dissociation constant for a synthetic butyl mannoside by measuring the amount of [^3H]-mannose bound to the protein in the presence of increasing amounts of the inhibitor (FIG. 1B). […] To investigate the effect of sequential addition of methyl groups to the O1 oxygen of D-mannose, a series of alkyl mannosides were synthesized and the dissociation constants determined using the [^3H]-mannose displacement assay and by surface plasmon resonance (Table 1).
Surface Plasmon Resonance measurements were performed on a Biacore3000™. The Fab fragments of a monoclonal antibody against FimH were covalently immobilised via lysines at 1000 Resonance Units (1000 pg ligand/mm^2) in flowcell Fc2 on a CM5 biasensor chip (BIAapplications Handbook, Biacore AB, Uppsala, Sweden). Immobilisation buffer was 100 mM NaAc pH 5.0 with 100 mM NaCl. The reference flowcell Fc1 was left blank.
Binding of FimH to the immobilized antibody was measured with a Biacore 3000 instrument in running buffer (phosphate buffered saline with 0.005% surfactant P20 and 3 mM EDTA), on both flowcells Fc1 and Fc2 simultaneously, at a flow rate of 30 μl/min and at 25° C. Complete dissociation of FimH was done with running buffer before starting a new binding cycle. For all measurements, the association time was 3 minutes, the dissociation time was 30 min. All binding cycles were performed in duplicate, including a zero concentration cycle of FimH (injection of running buffer).
In a first experiment, the kinetic constants, ka and kd, and the maximal binding Rmax, were determined for the FimH-antibody interaction (FimH concentrations (nM): 2000, 1000, 500, 250, 125, 62.5, 31.25, 15.625, 7.818, 3.911, 1.957, 0). All analyses were performed with the BIAeval software. A Langmuir binding isotherm with a 1:1 stoichiometry was fitted to the data, from which the kinetic constants and maximal binding were obtained.
In the next experiment, samples containing a fixed concentration of FimH (close to the KD of the FimH-antibody interaction) in combination with varying concentrations of saccharide, were used to determine the dissociation constant of the FimH-saccharide interaction in a competition experiment. First, ten-fold dilutions of the saccharide solution were used to determine the concentration range for binding of the saccharide to FimH.

T1 sequence (P08191 22-179): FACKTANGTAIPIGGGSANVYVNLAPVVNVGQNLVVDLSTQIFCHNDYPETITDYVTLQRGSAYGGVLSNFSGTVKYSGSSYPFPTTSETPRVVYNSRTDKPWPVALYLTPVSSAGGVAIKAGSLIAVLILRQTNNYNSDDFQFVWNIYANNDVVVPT

`OC[C@H]1O[C@H](O)[C@@H](O)[C@@H](O)[C@@H]1O` [Mannose, α-D-mannose] was tested, and the Kd was 2300 nM, the Kd (Table 1, O1 alkyl and aryl mannosides, SPR and displacement binding experiments) was 2300 nM and the “ΔG°” value (Table 1, calculated from KD) was -7.6 kcal/mol. The “ΔG° J96” value (Table 3, calculated from KD) was -7.6 kcal/mol and the Kd (read-out: KD J96, Table 3, [3H]-mannose displacement assay (mannose measured directly)) was 2300 nM.
